Tests used:
BPD patients [1] = assay: Phase IIa REIMAGINE trial, BPD cohort: efficacy by Borderline Personality Disorder Checklist (BPDCL); format: in vivo, human; details: 5 BPD patients, 1.2 mg/day oral free base, 5 days on/2 days off, 8 weeks, paired one-tail t-test
From the text: (§1) As part of a Phase IIa clinical trial (REIMAGINE trial, EudraCT number 2018-002140-88) to evaluate the safety, tolerability and efficacy of the KDM1A inhibitor vafidemstat to treat aggression in adult population in patients with different CNS disorders, a cohort of BPD patients was recruited and treated with vafidemstat for 8 weeks. A summary of the protocol of this clinical trial and results obtained in the BPD cohort are provided below.
(§2) Reimagine is a unicenter, open-label, 1-arm, 8-week clinical study to evaluate the efficacy, safety and tolerability of vafidemstat in aggression in adult population with Alzheimer's Disease (AD), Lewy Body Dementia (LBD), Adult attention Deficit Hyperactivity Disorder (ADHD), Borderline Personality Disorder (BPD) and Autism Spectrum Disorder (ASD). Six patients to be recruited per disorder.
Treatment: All patients received vafidemstat (as free base) at a dose of 1.2 mg/day, administered orally as a single capsule, in a 5 days on/2 days off schedule, during 8 weeks.
Six BPD patients were recruited, but there was one drop-out, and therefore the results as described herein correspond to the 5 BPD subjects eligible for analysis. A summary of the patients recruited in this BPD cohort (demographic data at baseline) can be found in Table 1.
Assessment of efficacy of treatment in BPD patients was performed using a validated scale specific for BPD, the Borderline Personality Disorder Checklist (BPDCL). The BPDCL is an instrument specifically designed to evaluate the subjective burden of BPD in the last month and also to rate BPD changes after therapeutic intervention. Originally developed in Dutch, the BPDCL has been subsequently translated into English, Spanish and other languages, and has been applied to clinical and non-clinical samples. […]
One can use the total sum score on the BPDCL (BPDCL Total Score) as an overall index of the subjective burden caused by BPD symptoms, or one can use sum scores for one or more of the separate BPD domains. […] Efficacy assessments were always measured prior to treatment administration on the corresponding visit day. […]

BPD patients [2] = assay: Phase IIa REIMAGINE trial, BPD cohort: safety and tolerability; format: in vivo, human; details: 1.2 mg/day oral free base, 5 days on/2 days off, 8 weeks; without significant adverse events
From the text: as §1, §2
Main objective of the trial: To evaluate the safety and tolerability of vafidemstat in adult population with Alzheimer's Disease (AD), Lewy Body Dementia (LBD), Adult attention deficit hyperactivity disorder (ADHD), Borderline Personality Disorder (BPD), Autism Spectrum Disorder (ASD)
Treatment: All patients received vafidemstat (as free base) at a dose of 1.2 mg/day, administered orally as a single capsule, in a 5 days on/2 days off schedule, during 8 weeks. […]

Nc1nnc(CN[C@@H]2C[C@H]2c2ccc(OCc3ccccc3)cc2)o1 [vafidemstat, 5-((((1R,2S)-2-(4-(benzyloxy)phenyl)cyclopropyl)amino)methyl)-1,3,4-oxadiazol-2-amine]
Aggression-related BPDCL domains combined score (anger control, impulsivity, (para)suicide), change from visit 1 (baseline) to visit 7 (BPD patients [1]; p=0.0029, FIG. 1): statistically significant reduction
BPDCL Total score, change from visit 1 (baseline) to visit 7 (BPD patients [1]; p=0.0048, FIG. 2): statistically significant reduction
Non-aggression-related BPDCL domains combined score (abandonment, relationships, identity disturbance, affective instability, emptiness, dissociation), change from visit 1 (baseline) to visit 7 (BPD patients [1]; p=0.0234, FIG. 3): statistically significant reduction
Safety and tolerability of treatment in BPD patients (BPD patients [2]): safe and well tolerated

Reference: patent US12673044B2, “Methods of treating borderline personality disorder” (ORYZON GENOMICS, S.A., priority 2019, dated 2026)
